Where a name gives a salt, the structure may show the parent alone.

Chain of human LOXL2 (Q9Y4K0 26-774): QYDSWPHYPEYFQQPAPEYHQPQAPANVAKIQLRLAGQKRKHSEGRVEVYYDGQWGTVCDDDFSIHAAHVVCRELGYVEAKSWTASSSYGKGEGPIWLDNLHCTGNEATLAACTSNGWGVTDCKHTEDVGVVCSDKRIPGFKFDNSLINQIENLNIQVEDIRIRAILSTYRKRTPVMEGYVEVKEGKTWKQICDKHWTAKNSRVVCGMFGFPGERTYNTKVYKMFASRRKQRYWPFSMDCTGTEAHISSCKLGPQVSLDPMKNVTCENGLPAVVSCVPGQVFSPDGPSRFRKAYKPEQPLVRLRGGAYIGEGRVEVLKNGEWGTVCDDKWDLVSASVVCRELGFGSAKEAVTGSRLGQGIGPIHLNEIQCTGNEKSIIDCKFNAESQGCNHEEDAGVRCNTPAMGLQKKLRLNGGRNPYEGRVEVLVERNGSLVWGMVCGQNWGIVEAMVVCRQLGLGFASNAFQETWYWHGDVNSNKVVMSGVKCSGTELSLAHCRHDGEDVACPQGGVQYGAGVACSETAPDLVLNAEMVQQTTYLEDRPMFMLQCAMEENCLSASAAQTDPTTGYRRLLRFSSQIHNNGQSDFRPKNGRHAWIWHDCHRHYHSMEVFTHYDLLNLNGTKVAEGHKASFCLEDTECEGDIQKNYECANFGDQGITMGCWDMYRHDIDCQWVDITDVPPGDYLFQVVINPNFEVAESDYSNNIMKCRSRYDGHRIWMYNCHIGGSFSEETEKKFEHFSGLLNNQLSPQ

One test concerns the target human LOXL2 (Homo sapiens (Human), UniProt Q9Y4K0). Put plainly: Human LOXL2 Amine Oxidase Activity Assay (Amplex Red fluorescence). The format is biochemical. The conditions noted are these: IC50, concentrated conditioned media from CHO cells stably expressing human LOXL2; 2 h at 37° C. preincubation; DAP substrate. As for the experimental part:
LOXL2 amine oxidase activity is evaluated by measuring Amplex Red fluorescence using 10-20× concentrated conditioned media from CHO cells stably expressing human LOXL2. To assay for amine oxidase activity, 10 μL of the concentrated conditioned media is incubated with 2 μL of test compound in DMSO and 73 μL Assay Buffer (50 mM Borate Buffer, pH8) for 2 h at 37° C. After the 2 h incubation, 5 μl of 10 mM 1,5-Diaminopentane (DAP) diluted in Assay Buffer and 10 μl of Amplex Red Mix (8.5 μl Assay Buffer+0.5 μl of 10 mM Amplex Red+1 μl of 500 U/ml Horseradish Peroxidase) are added and the plate mixed and immediately placed on the FlexStaion for fluorescence measurements. Fluorescence is read in kinetic mode every 2 min for 1 hour at excitation=544 and emission=590. The amine oxidase activity is calculated from the slope of the linear portion of the curve.
As for `NCc1ccnc(NC(=O)CC(F)(F)F)c1` [Compound 4-14, trifluoroacetate], the IC50 (usually the midpoint of a concentration-inhibition curve) lay within 300 to 1000 nM.

Staying with this test, now noted: concentrated conditioned media from CHO cells stably expressing human LOXL2; 2 h at 37° C. preincubation; DAP substrate; read-out: IC50.
As to `NCc1ccnc(Oc2cccc3[nH]ccc23)c1` [Compound 2-32, (2-((1H-Indol-4-yl)oxy)pyridin-4-yl)methanamine trifluoroacetate], the IC50 is less than 300 nM.
Same read-out and setting: the value for `NCc1ccnc(Oc2cccc3c2CCN3c2nc3ccc(F)cc3s2)c1` [Compound 2-33, (2-((1-(6-Fluorobenzo[d]thiazol-2-yl)indolin-4-yl)oxy)pyridin-4-yl)methanamine hydrochloride] was less than 300 nM; that for `Cc1nn(Cc2ccc(F)cc2F)c2cccc(Oc3cc(CN)ccn3)c12` [Compound 2-35, (2-((1-(2,4-Difluorobenzyl)-3-methyl-1H-indazol-4-yl)oxy)pyridin-4-yl)methanamine trifluoroacetate] was less than 300 nM; that for `NCc1ccnc(Oc2cccc3c2CCC(=O)N3Cc2ccc(F)cc2F)c1` [Compound 2-36, 5-((4-(Aminomethyl)pyridin-2-yl)oxy)-1-(2,4-difluorobenzyl)-3,4-dihydroquinolin-2(1H)-one hydrochloride] was less than 300 nM.
Turning to `COc1ccc(CN2C(=O)CCc3c(Oc4cc(CN)ccn4)cccc32)cn1` [Compound 2-37, 5-((4-(Aminomethyl)pyridin-2-yl)oxy)-1-((6-methoxypyridin-3-yl)methyl)-3,4-dihydroquinolin-2(1H)-one acetate], the IC50 was less than 300 nM.
The same measure, in the same setting: the value for `NCc1ccnc(O[C@H]2CCCN(C(=O)c3ccccc3)C2)c1` [Compound 2-38, (S)-(3-((4-(Aminomethyl)pyridin-2-yl)oxy)piperidin-1-yl)(phenyl)methanone trifluoroacetate] was less than 300 nM.
The same measure, in the same setting: the value for `NCc1ccnc(O[C@H]2CCCN(C(=O)Nc3ccccc3)C2)c1` [Compound 2-39, (A)-3-((4-(Aminomethyl)pyridin-2-yl)oxy)-N-phenylpiperidine-1-carboxamide trifluoroacetate] was less than 300 nM.
For the compound `Cc1ccc(C(=O)Nc2cc(CN)ccn2)c(F)c1` [Compound 2-42, N-(4-(Aminomethyl)pyridin-2-yl)-2-fluoro-4-methylbenzamide trifluoroacetate], the half-inhibitory concentration (IC50) was 300 to 1000 nM.
Same read-out and setting: next, `NCc1ccnc(NC(=O)Cc2ccc(Cl)c(Cl)c2)c1` [Compound 2-43, N-(4-(Aminomethyl)pyridin-2-yl)-2-(3,4-dichlorophenyl)acetamide trifluoroacetate]: 300 to 1000 nM.
Still for that read-out and setting: next, `CN(C)c1cc(CN)cc(Oc2cccc(Oc3ccccc3)c2)n1` [Compound 3-1, 4-(Aminomethyl)-N,N-dimethyl-6-(3-phenoxyphenoxy)pyridin-2-amine hydrochloride]: more than 1000 nM; `COCCNc1cc(CN)cc(Oc2cccc(Oc3ccccc3)c2)n1` [Compound 3-2, 4-(Aminomethyl)-N-(2-methoxyethyl)-6-(3-phenoxyphenoxy)pyridin-2-amine trifluoroacetate]: 300 to 1000 nM; `NCc1cc(Oc2cccc(Oc3ccccc3)c2)nc(-c2ccc(F)cc2)c1` [Compound 3-3, (2-(4-Fluorophenyl)-6-(3-phenoxyphenoxy)pyridin-4-yl)methanamine trifluoroacetate]: 300 to 1000 nM.
In the case of `NCc1cccnc1F` [Compound 4-1, 2-Fluoro-3-(aminomethyl)pyridine], the IC50 is more than 1000 nM.
With `NCc1ccncc1F` [Compound 4-2, 3-Fluoro-4-(aminomethyl)pyridine], the IC50 fell in the range of 300 to 1000 nM.
Still for that read-out and setting: next, `NCc1ccnc(F)c1` [Compound 4-3, 2-Fluoro-4-(aminomethyl)pyridine]: 300 to 1000 nM; `NCc1ccnc(Cl)c1` [Compound 4-5, 2-Chloro-4-(aminomethyl)pyridine]: less than 300 nM.
Still for that read-out and setting: the value for `NCc1ccnc(OCc2ccccc2)c1` [Compound 4-6, 2-Benzyloxy-4-(aminomethyl)pyridine] was more than 1000 nM; that for `NCc1ccnc(OC2CCCCC2)c1` [Compound 4-7, 2-Cyclohexyloxy-4-(aminomethyl)pyridine] was less than 300 nM; that for `NCc1ccnc(Oc2ccc(F)cc2)c1` [Compound 4-8, 2-(4-Fluorophenoxy)-4-(aminomethyl)pyridine] was less than 300 nM.
On the same count and under the same terms, next, `NCc1ccnc(Oc2ccccc2C(F)(F)F)c1` [Compound 4-9, 2-(2-Trifluoromethylphenoxy)-4-(aminomethyl)pyridine]: less than 300 nM; `NCc1ccnc(N2CCCC2)c1` [Compound 4-10, 2-(1-Pyrrolidino)-4-(aminomethyl)pyridine]: more than 1000 nM; `NCc1ccnc(-n2ccnc2)c1` [Compound 4-11, 2-(Imidazol-1-yl)-4-(aminomethyl)pyridine]: less than 300 nM.
On to `CCN1CCN(c2cc(CN)ccn2)CC1` [Compound 4-12, 2-(4-Ethylpiperazin-1-yl)-4-(aminomethyl)pyridine], for which the IC50 is more than 1000 nM.
Turning to `COCCNC(=O)c1cc(CN)ccn1` [Compound 4-13, 4-(Aminomethyl)-N-(2-methoxyethyl)picolinamide hydrochloride], the IC50 is less than 300 nM.
